The conditions of data set [1]: literature values, cited from earlier work; for Transition Temperatures (° C.), PC: PC headgroup; for Transition Temperatures (° C.), PE: PE headgroup.
Data set [2] can be described thus: ZNLP hydrodynamic diameter, zeta potential and encapsulation efficiency. It is filed as physicochemical. The conditions noted are these: ZNLP encapsulating siRNA. Here is the method:
5-10 min after particle formation liposomes are extruded through either 50 nm or 80 nm polycarbonate membranes 7 times. Methanol can be removed by either evaporation or dialysis.
FIG. 29 is a table showing ZNLP encapsulating siRNA: hydrodynamic diameter and zeta potential: siRNA was encapsulated into ZNLP from various zwitterionic lipids.
FIG. 30 is a table showing the effect of helper lipids on size and encapsulation efficiency: Changing helper lipid and lipid composition affects size and encapsulation efficiency of ZNLP. DOBA-Q formed small lipid vesicles≦80 nm. […] All lipid formulations display negative/neutral zeta potential.

Data set [3] is described as follows: SBL liposome formation, diameter and PDI in various salts. Format: physicochemical. Also noted: key to Liposome diameter (nm): DNF=Did Not Form, no liposomes formed. Here is the method: The five SBLs were first examined for their ability to make vesicles under standard buffer conditions (10 mM HEPES, 140 mM NaCl, pH 7.4). We observed that none of the five SBLs were able to form stable liposomes after thin film rehydration in this buffer followed by sonication at 80° C. […] To test if the SB headgroup inner salt interactions could be disrupted by an increase in salt concentration, the same liposome formation process was performed at increasing NaCl concentrations. Salts with different anions were also tested to determine if those predicted to have greater binding than Cl^− would allow for liposome formation at concentrations where NaCl was not able to. Liposome-formation results are shown in Table 4 for all five SBLs with a variety of salts and at various NaCl concentrations.
Liposome preparations were made at 26 mM lipid in 10 mM HEPES buffer, pH 7.4 with the specified salt concentration. All preparations were rehydrated and sonicated at 80° C. for 7 minutes, allowed to cool for 5 minutes and then measured.
Liposome diameters were measured both five minutes after sonication and at 24 hours. DPSB and DSSB in NaI both formed gels and could not be measured and DPSB and DSSB with KBr precipitated into particles too large and polydisperse for measurement.

The nature of data set [4]: Zeta potential of liposomes as a function of calcium concentration. It is filed as physicochemical. The conditions noted are these: across physiological Ca2+ concentrations. Here is the method: Liposomes were prepared from either DOPC or DOCPe and their zeta potentials were measured in a Malvern zetaNano instrument as a function of the calcium concentration. Liposomes prepared from either lipid become more positively charged as the Ca^2+ concentration increases.

Data set [5] in a line: Phase transition temperatures of sulfobetaine lipids (DSC). It is filed as physicochemical. The conditions noted are these: for inner/outer salt form (high/low transition) as function of NaCl concentration: DSC, 10 mM HEPES pH 7.4, NaCl up to 1M; for Transition Temperatures (° C.), SB Inner Salt: hypothesized inner salt form, observed high phase transition; for Transition Temperatures (° C.), SB Outer Salt: hypothesized outer salt form, observed low phase transition. Here is the method: All buffers contain 10 mM HEPES, pH 7.4. Preparations were made at 26 mM SB lipid by thin film rehydration at 80° C., followed by brief 20 second bursts of sonication at 80° C. (˜2-4 times) to make dispersions of large bilayer fragments.
Based on our observations that SBL liposome formation and stability is largely dependent on salt composition and concentration we sought to determine if these effects changed the transition temperatures of the liposomes. The data in FIG. 3 clearly depicts a bi-modal phase transition behavior for the SBLs. Without salt, the majority of the SBLs are likely in one of the inner salt forms supported by the observed elevated transition temperatures.
Inner and outer salt conformations of the SBLs are hypothesized to coordinate to the observed high and low phase transitions, respectively.

Where [6] appears, read: 0 mM NaCl, 26 mM lipid, 10 mM HEPES pH 7.4.
Where [7] appears, read: 150 mM KBr, five minutes after sonication.
Setting [8] is: 150 mM NaCl, 26 mM lipid, 10 mM HEPES pH 7.4.
Setting [9] is: 150 mM NaClO4, five minutes after sonication.
The mark [10] stands for this setting: 150 mM NaI, five minutes after sonication.
Setting [11] is: 500 mM NaCl, 26 mM lipid, 10 mM HEPES pH 7.4.
The mark [12] stands for this setting: 1000 mM NaCl, 26 mM lipid, 10 mM HEPES pH 7.4.

SMILES strings stand for the structures. Entries after “also recorded” stand apart in the source; their conditions may differ.

Regarding `CCCCCCCCCCCCCC(=O)OC[C@H](COP(=O)([O-])OCC[N+](C)(C)C)OC(=O)CCCCCCCCCCCCC` [C14 PC], the “Transition Temperatures (° C.), PC” value in data set [1] is 24.2 °C.

For `CCCCCCCCCCCCCC(=O)OC[C@H](COP(=O)(O)OCCN)OC(=O)CCCCCCCCCCCCC` [C14 PE], in data set [1], the “Transition Temperatures (° C.), PE” value is 49.4 °C.

As for `CCCCCCCCCCCCCCCC(=O)OC[C@H](COP(=O)([O-])OCC[N+](C)(C)C)OC(=O)CCCCCCCCCCCCCCC` [C16 PC], the “Transition Temperatures (° C.), PC” value in data set [1] was 41.7 °C.

On to `CCCCCCCCCCCCCCCC(=O)OCC(COP(=O)(O)OCCN)OC(=O)CCCCCCCCCCCCCCC` (stereo not drawn) [C16 PE], for which the “Transition Temperatures (° C.), PE” value in data set [1] is 63.5 °C.

For `CCCCCCCCCCCCCCCCCC(=O)OC[C@H](COP(=O)([O-])OCC[N+](C)(C)C)OC(=O)CCCCCCCCCCCCCCCCC` [C18 PC], the “Transition Temperatures (° C.), PC” value in data set [1] is 55.3 °C.

Consider `CCCCCCCCCCCCCCCCCC(=O)OC[C@H](COP(=O)(O)OCCN)OC(=O)CCCCCCCCCCCCCCCCC` [C18 PE], for which, in data set [1], the “Transition Temperatures (° C.), PE” value was 74.4 °C.

`CCCCC/C=C\C/C=C\CCCCCCCC(=O)OC[C@H](COP(=O)(O)OCCN)OC(=O)CCCCCCC/C=C\C/C=C\CCCCC` [DIinPE, reference compound]: the siRNA encapsulation efficiency result in data set [2] is listed as “decreases encapsulation efficiency”.

For the compound `CCCCCCCCCCCC(=O)OCC(C[N+](C)(C)CCCS(=O)(=O)[O-])OC(=O)CCCCCCCCCCC` (stereo not drawn) [DLSB], the “Liposome diameter (nm)” value is “DNF” in data set [3] (setting [6]); 74.35 nm in data set [3] (150 mM KBr (24 h)); 54.56 nm in data set [3] (setting [7]); 1728 nm in data set [3] (setting [8]); 37.32 nm in data set [3] (150 mM NaClO4 (24 h)); 30.46 nm in data set [3] (setting [9]). Moreover, the “Liposome diameter (nm)” value is reported as “DNF” in data set [3] (150 mM NaF); 39.24 nm in data set [3] (150 mM NaI (24 h)); 28.93 nm in data set [3] (setting [10]); 41.7 nm in data set [3] (setting [11]); 56.5 nm in data set [3] (setting [12]). Besides, the “ability to make vesicles under standard buffer conditions” value in data set [3] (10 mM HEPES, 140 mM NaCl, pH 7.4, thin film rehydration, sonication at 80° C.) is on record as “formed large, polydisperse structures”. For the same compound, the PDI in data set [3] (150 mM KBr (24 h)) was determined as 0.254; in data set [3] (setting [7]) it was 0.276; in data set [3] (setting [8]) it was 0.708; in data set [3] (150 mM NaClO4 (24 h)), 0.251; in data set [3] (setting [9]) it was 0.205; in data set [3] (150 mM NaI (24 h)) it was 0.215. Further, the PDI in data set [3] (setting [10]) worked out at 0.163; in data set [3] (setting [11]) it was 0.296; in data set [3] (setting [12]) it was 0.361.

Turning to `CCCCCCCC/C=C\CCCCCCCC(=O)OCC(C[N+](C)(C)CCOP(=O)([O-])OCC)OC(=O)CCCCCCC/C=C\CCCCCCCC` (stereo not drawn) [DOCPe], the “zeta potential of liposomes” value in data set [4] is reported as “remain negative”.

In the case of `CCCCCCCC/C=C\CCCCCCCC(=O)OC[C@H](COP(=O)([O-])OCC[N+](C)(C)C)OC(=O)CCCCCCC/C=C\CCCCCCCC` [DOPC, reference compound], the “zeta potential of liposomes” value in data set [4] was “become positively charged”.

With `CCCCCCCC/C=C\CCCCCCCC(=O)OCC(C[N+](C)(C)CCCS(=O)(=O)[O-])OC(=O)CCCCCCC/C=C\CCCCCCCC` (stereo not drawn) [DOSB], the “Liposome diameter (nm)” value in data set [3] (setting [6]) is listed as “DNF”; in data set [3] (150 mM KBr (24 h)), 137.6 nm; in data set [3] (setting [7]), 120.8 nm; in data set [3] (setting [8]) it was “DNF”; in data set [3] (150 mM NaClO4 (24 h)), 69.18 nm; in data set [3] (setting [9]) it was 67.7 nm. The “Liposome diameter (nm)” value in data set [3] (150 mM NaF) is listed as “DNF”; in data set [3] (150 mM NaI (24 h)) it was 99.24 nm; in data set [3] (setting [10]), 90.58 nm; in data set [3] (setting [11]), 126.9 nm; in data set [3] (setting [12]) it was 118.9 nm. Further, the PDI is given as 0.353 in data set [3] (150 mM KBr (24 h)); 0.260 in data set [3] (setting [7]); 0.235 in data set [3] (150 mM NaClO4 (24 h)); 0.250 in data set [3] (setting [9]); 0.253 in data set [3] (150 mM NaI (24 h)); 0.246 in data set [3] (setting [10]). Also, the figures for the PDI in data set [3] (setting [11]) and in data set [3] (setting [12]) were 0.197 and 0.176, respectively.

On to `CCCCCCCCCCCCCCCC(=O)OCC(C[N+](C)(C)CCCS(=O)(=O)[O-])OC(=O)CCCCCCCCCCCCCCC` (stereo not drawn) [DPSB], for which the “Liposome diameter (nm)” value in data set [3] (setting [6]) was “DNF”; in data set [3] (150 mM KBr (24 h)), “Precipitated”; in data set [3] (setting [7]), 64.35 nm; in data set [3] (setting [8]) it was “DNF”; in data set [3] (150 mM NaClO4 (24 h)) it was 42.71 nm; in data set [3] (setting [9]), 35.1 nm. In addition, the “Liposome diameter (nm)” value is on record as “DNF” in data set [3] (150 mM NaF); “Formed Gel” in data set [3] (150 mM NaI (24 h)); 57.45 nm in data set [3] (setting [10]); 66.95 nm in data set [3] (setting [11]); 92.53 nm in data set [3] (setting [12]). Further, the PDI in data set [3] (setting [7]) stood at 0.134; in data set [3] (150 mM NaClO4 (24 h)) it was 0.353; in data set [3] (setting [9]), 0.220; in data set [3] (setting [10]), 0.296; in data set [3] (setting [11]) it was 0.253; in data set [3] (setting [12]), 0.275. In addition, the phase transitions observed entry in data set [5] (150 mM NaClO4) was “only the high transition”; in data set [5] (150 mM NaF) it was “only the low transition”. The “temperature of residual inner salt transition” value in data set [5] (500 mM NaCl) came out at 58 °C. The “inner/outer salt form (high/low transition) as function of NaCl concentration” value in data set [5] is on record as “switches from the inner salt to the outer salt at 500 mM”. Further, the “Transition Temperatures (° C.), SB Inner Salt” value in data set [5] worked out at 60 °C. Besides, the “Transition Temperatures (° C.), SB Outer Salt” value in data set [5] was found to be 43 °C.

As for `CCCCCCCCCCCCCCCCCC(=O)OCC(C[N+](C)(C)CCCS(=O)(=O)[O-])OC(=O)CCCCCCCCCCCCCCCCC` (stereo not drawn) [DSSB], the “Liposome diameter (nm)” value is recorded as “DNF” in data set [3] (setting [6]); “Precipitated” in data set [3] (150 mM KBr (24 h)); 102.3 nm in data set [3] (setting [7]); “DNF” in data set [3] (setting [8]); 71.96 nm in data set [3] (150 mM NaClO4 (24 h)); 42.45 nm in data set [3] (setting [9]). For the same compound, the “Liposome diameter (nm)” value is on record as “DNF” in data set [3] (150 mM NaF); “Formed Gel” in data set [3] (150 mM NaI (24 h)); 43.31 nm in data set [3] (setting [10]); 122.7 nm in data set [3] (setting [11]); 137.9 nm in data set [3] (setting [12]). For the same compound, the PDI in data set [3] (setting [7]) came out at 0.123; in data set [3] (150 mM NaClO4 (24 h)), 0.282; in data set [3] (setting [9]), 0.258; in data set [3] (setting [10]), 0.231; in data set [3] (setting [11]), 0.285; in data set [3] (setting [12]), 0.404. The phase transitions observed entry in data set [5] (150 mM NaF, NaCl, KBr, NaI, NaClO4) is “both transitions for all salts except NaClO4”. Also, in data set [5], the “inner/outer salt form (high/low transition) as function of NaCl concentration” value is “never exists completely as the inner salt conformation, but does reside as the outer salt form at 500 mM; also recorded: small low transition peak in a buffer without NaCl”. Further, the “Transition Temperatures (° C.), SB Inner Salt” value in data set [5] turned out to be 68 °C. For the same compound, the “Transition Temperatures (° C.), SB Outer Salt” value in data set [5] was found to be 57 °C.

Source of the values: patent US8956646B2, “Zwitterionic lipids” (The Regents of the University of California, priority 2010, dated 2015).
